Assay results published in patent US7601686B2, “Hepatitis C virus inhibitors” (Bristol-Myers Squibb Company, priority 2005, dated 2009).
Read-outs that look alike come from different tables or passages of the source.

Experiments:
[1] = target: T1, HCV NS3/4A protease complex, BMS strain (UniProt P27958, species not given/STRAIN_BMS); assay: FRET peptide assay to monitor HCV NS3/4A proteolytic activity (BMS strain); type: biochemical, Hepatitis C virus (genotype 1a)
T1 construct: DNA encoding the recombinant HCV NS3/4A protease complex (amino acids 1027 to 1711) for these strains [H77 and J4L6S]; fused on or other part: For the H77 and J4L6S constructs, a three-lysine solubilising tail at the NS4A C-terminus and a Ni-NTA-purifiable tag from pET21b
T1 sequence (P27958 1027-1657, stated change not applied, one chain of several): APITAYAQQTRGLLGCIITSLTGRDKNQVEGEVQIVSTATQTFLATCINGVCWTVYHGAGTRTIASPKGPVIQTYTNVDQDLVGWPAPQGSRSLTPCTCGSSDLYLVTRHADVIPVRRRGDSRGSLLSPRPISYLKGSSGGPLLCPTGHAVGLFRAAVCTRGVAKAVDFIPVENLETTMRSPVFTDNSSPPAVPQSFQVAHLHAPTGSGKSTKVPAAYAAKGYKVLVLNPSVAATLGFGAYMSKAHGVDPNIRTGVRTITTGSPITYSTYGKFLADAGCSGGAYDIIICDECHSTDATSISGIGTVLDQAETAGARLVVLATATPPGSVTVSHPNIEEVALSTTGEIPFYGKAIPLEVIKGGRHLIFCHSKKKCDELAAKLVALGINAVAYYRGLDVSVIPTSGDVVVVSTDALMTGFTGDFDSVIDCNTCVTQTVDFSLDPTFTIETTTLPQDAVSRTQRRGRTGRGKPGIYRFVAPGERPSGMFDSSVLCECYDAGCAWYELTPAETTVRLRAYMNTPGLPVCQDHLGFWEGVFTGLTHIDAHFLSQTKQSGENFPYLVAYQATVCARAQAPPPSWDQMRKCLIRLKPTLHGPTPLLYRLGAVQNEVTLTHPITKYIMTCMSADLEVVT
Excerpt: Generation of Recombinant HCV NS3/4A Protease Complex
HCV NS3 protease complexes, derived from the BMS strain, H77 strain or J4L6S strain, were generated, as described below. These purified recombinant proteins were generated for use in a homogeneous assay (see below) to provide an indication of how effective compounds of the present disclosure would be in inhibiting HCV NS3 proteolytic activity.
Serum from an HCV-infected patient was obtained from Dr. T. Wright, San Francisco Hospital. An engineered full-length cDNA (compliment deoxyribonucleic acid) template of the HCV genome (BMS strain) was constructed from DNA fragments obtained by reverse transcription-PCR (RT-PCR) of serum RNA (ribonucleic acid) and using primers selected on the basis of homology between other genotype 1a strains. From the determination of the entire genome sequence, a genotype 1a was assigned to the HCV isolate according to the classification of Simmonds et al. (See P Simmonds, K A Rose, S Graham, S W Chan, F McOmish, B C Dow, E A Follett, P L Yap and H Marsden, J. Clin. Microbiol., 31(6), 1493-1503 (1993)). […] The infectious clones, H77 (1a genotype) and J4L6S (1b genotype) were obtained from R. Purcell (NIH) and the sequences are published in Genbank (AAB67036, see Yanagi, M., Purcell, R. H., Emerson, S. U. and Bukh, J. Proc. Natl. Acad. Sci. U.S.A. 94(16), 8738-8743 (1997); AF054247, see Yanagi, M., St Claire, M., Shapiro, M., Emerson, S. U., Purcell, R. H. and Bukh, J, Virology 244 (1), 161-172. (1998)).
The H77 and J4L6S strains were used for production of recombinant NS3/4A protease complexes. DNA encoding the recombinant HCV NS3/4A protease complex (amino acids 1027 to 1711) for these strains were manipulated as described by P. Gallinari et al. (see Gallinari P, Paolini C, Brennan D, Nardi C, Steinkuhler C, De Francesco R. Biochemistry. 38(17):5620-32, (1999)). Briefly, a three-lysine solubilizing tail was added at the 3′-end of the NS4A coding region. The cysteine in the P1 position of the NS4A-NS4B cleavage site (amino acid 1711) was changed to a glycine to avoid the proteolytic cleavage of the lysine tag. Furthermore, a cysteine to serine mutation was introduced by PCR at amino acid position 1454 to prevent the autolytic cleavage in the NS3 helicase domain. The variant DNA fragment was cloned in the pET21b bacterial expression vector (Novagen) and the NS3/4A complex was expressed in Escherichia coli strain BL21 (DE3) (Invitrogen) following the protocol described by P. Gallinari et al. (see Gallinari P, Brennan D, Nardi C, Brunetti M, Tomei L, Steinkuhler C, De Francesco R., J. Virol. 72(8):6758-69 (1998)) with modifications. Briefly, the NS3/4A protease complex expression was induced with 0.5 millimolar (mM) Isopropyl β-D-1-thiogalactopyranoside (IPTG) for 22 hours (h) at 20° C. A typical fermentation (1 Liter (L)) yielded approximately 10 grams (g) of wet cell paste. The cells were resuspended in lysis buffer (10 mL/g) consisting of 25 mM N-(2-Hydroxyethyl)piperazine-N′-(2-Ethane Sulfonic acid) (HEPES), pH 7.5, 20% glycerol, 500 mM Sodium Chloride (NaCl), 0.5% Triton X-100, 1 microgram/milliliter (“μg/mL”) lysozyme, 5 mM Magnesium Chloride (MgCl2), 1 μg/mL DnaseI, 5 mM β-Mercaptoethanol (βME), Protease inhibitor—Ethylenediamine Tetraacetic acid (EDTA) free (Roche), homogenized and incubated for 20 minutes (min) at 4° C. The homogenate was sonicated and clarified by ultra-centrifugation at 235000 g for 1 h at 4° C. Imidazole was added to the supernatant to a final concentration of 15 mM and the pH adjusted to 8.0. The crude protein extract was loaded on a Nickel—Nitrilotriacetic acid (Ni-NTA) column pre-equilibrated with buffer B (25 mM HEPES, pH 8.0, 20% glycerol, 500 mM NaCl, 0.5% Triton X-100, 15 mM imidazole, 5 mM βME). The sample was loaded at a flow rate of 1 mL/min. The column was washed with 15 column volumes of buffer C (same as buffer B except with 0.2% Triton X-100). […]

[2] = tested on: HCV replicon in HUH-7 cells; assay: HCV replicon FRET assay; type: cell-based, Hepatitis C virus (strain 1b); conditions: Hepatitis C virus
Excerpt: Generation of HCV Replicon
An HCV replicon whole cell system was established as described by Lohmann V, Korner F, Koch J, Herian U, Theilmann L, Bartenschlager R., Science 285(5424):110-3 (1999). This system enabled us to evaluate the effects of our HCV Protease compounds on HCV RNA replication. Briefly, using the HCV strain 1b sequence described in the Lohmann paper (Assession number:AJ238799), an HCV cDNA was synthesized by Operon Technologies, Inc. (Alameda, Calif.), and the full-length replicon was then assembled in plasmid pGem9zf(+) (Promega, Madison, Wis.) using standard molecular biology techniques. The replicon consists of (i) the HCV 5′ UTR fused to the first 12 amino acids of the capsid protein, (ii) the neomycin phosphotransferase gene (neo), (iii) the IRES from encephalomyocarditis virus (EMCV), and (iv) HCV NS3 to NS5B genes and the HCV 3′ UTR. Plasmid DNAs were linearized with ScaI and RNA transcripts were synthesized in vitro using the T7 MegaScript transcription kit (Ambion, Austin, Tex.) according to manufacturer's directions. In vitro transcripts of the cDNA were transfected into the human hepatoma cell line, HUH-7. […] Resulting cell lines were characterized for positive and negative strand RNA production and protein production over time.
The HCV replicon FRET assay was developed to monitor the inhibitory effects of compounds described in the disclosure on HCV viral replication. HUH-7 cells, constitutively expressing the HCV replicon, were grown in Dulbecco's Modified Eagle Media (DMEM) (Gibco-BRL) containing 10% Fetal calf serum (FCS) (Sigma) and 1 mg/mL G418 (Gibco-BRL). Cells were seeded the night before (1.5×10^4 cells/well) in 96-well tissue-culture sterile plates. Compound and no compound controls were prepared in DMEM containing 4% FCS, 1:100 Penicillin/Streptomysin (Gibco-BRL), 1:100 L-glutamine and 5% DMSO in the dilution plate (0.5% DMSO final concentration in the assay). Compound/DMSO mixes were added to the cells and incubated for 4 days at 37° C. After 4 days, cells were first assessed for cytotoxicity using alamar Blue (Trek Diagnotstic Systems) for a CC50 reading. The toxicity of compound (CC50) was determined by adding 1/10th volume of alamar Blue to the media incubating the cells. After 4 h, the fluorescence signal from each well was read, with an excitation wavelength at 530 nm and an emission wavelength of 580 nm, using the Cytofluor Series 4000 (Perspective Biosystems). Plates were then rinsed thoroughly with Phosphate-Buffered Saline (PBS) (3 times 150 μl).

[3] = read-out: IC 50 Range; NS3/4A BMS strain, enzyme assay
[4] = HCV replicon cell assay, HUH-7, read-out: EC50 Range
[5] = NS3/4A BMS strain, enzyme assay; read-out: IC 50 Range

Row | Compound | IC50 [1, 3] | EC50 [2, 4] | IC50 [1, 5] | EC50 ([2]; Huh-7, read-out: EC50 Range)
1 | C=CC1CC1(NC(=O)C1CC(NC(=O)c2cccc[n+]2[O-])CN1C(=O)C(NC(=O)CC1CC1)C(C)(C)C)C(=O)NS(=O)(=O)C1CC1 (centres unmarked) [Compound 33] | 0.15 to 15 µM | > 15 µM | – | –
2 | C=CC1CC1(NC(=O)C1CC(NC(=O)c2ccc3ccccc3[n+]2[O-])CN1C(=O)C(NC(=O)CC1CC1)C(C)(C)C)C(=O)NS(=O)(=O)C1CC1 (centres unmarked) [Compound 34] | < 0.15 µM | 0.15 to 15 µM | – | –
3 | C=CC1CC1(NC(=O)[C@@H]1C[C@@H](NC(=O)c2ccccc2OC)CN1C(=O)[C@@H](NC(=O)CC1CC1)C(C)(C)C)C(=O)NS(=O)(=O)C1CC1 (some centres unmarked) [Compound 35] | 0.15 to 15 µM | > 15 µM | – | –
4 | C=CC1CC1(NC(=O)[C@@H]1C[C@@H](NC(=O)c2c(OCC)ccc3ccccc23)CN1C(=O)[C@@H](NC(=O)CC1CC1)C(C)(C)C)C(=O)NS(=O)(=O)C1CC1 (some centres unmarked) [Compound 37] | – | > 15 µM | 0.15 to 15 µM | –
5 | C=CC1CC1(NC(=O)[C@@H]1C[C@@H](NC(=O)c2ccccc2-c2ccccc2)CN1C(=O)[C@@H](NC(=O)CC1CC1)C(C)(C)C)C(=O)NS(=O)(=O)C1CC1 (some centres unmarked) [Compound 38] | – | > 15 µM | 0.15 to 15 µM | –
6 | C=CC1CC1(NC(=O)[C@@H]1C[C@@H](NC(=O)c2coc3ccccc3c2=O)CN1C(=O)[C@@H](NC(=O)CC1CC1)C(C)(C)C)C(=O)NS(=O)(=O)C1CC1 (some centres unmarked) [Compound 39] | – | 0.15 to 15 µM | < 0.15 µM | –
7 | C=CC1CC1(NC(=O)[C@@H]1C[C@@H](NC(=O)c2cn(CC)c3cc4c(cc3c2=O)OCO4)CN1C(=O)[C@@H](NC(=O)CC1CC1)C(C)(C)C)C(=O)NS(=O)(=O)C1CC1 (some centres unmarked) [Compound 40] | < 0.15 µM | > 15 µM | – | –
8 | C=CC1CC1(NC(=O)[C@@H]1C[C@@H](NC(=O)c2ccc3cnccc3n2)CN1C(=O)[C@@H](NC(=O)CC1CC1)C(C)(C)C)C(=O)NS(=O)(=O)C1CC1 (some centres unmarked) [Compound 41] | – | > 15 µM | < 0.15 µM | –
9 | C=CC1CC1(NC(=O)[C@@H]1C[C@@H](NC(=O)Nc2cccc3ccccc23)CN1C(=O)[C@@H](NC(=O)OC(C)(C)C)C(C)(C)C)C(=O)NS(=O)(=O)C1CC1 (some centres unmarked) [Compound 43] | < 0.15 µM | > 15 µM | – | –
10 | C=CC1CC1(NC(=O)[C@@H]1C[C@@H](NC(=O)NCc2ccccc2)CN1C(=O)[C@@H](NC(=O)OC(C)(C)C)C(C)(C)C)C(=O)NS(=O)(=O)C1CC1 (some centres unmarked) [Compound 44] | – | > 15 µM | 0.15 to 15 µM | –
11 | C=CC1CC1(NC(=O)[C@@H]1C[C@@H](NC(=S)NCc2ccccc2)CN1C(=O)[C@@H](NC(=O)OC(C)(C)C)C(C)(C)C)C(=O)NS(=O)(=O)C1CC1 (some centres unmarked) [Compound 45] | 0.15 to 15 µM | > 15 µM | – | –
12 | C=CC1CC1(NC(=O)[C@@H]1C[C@@H](NCc2ccnc3ccccc23)CN1C(=O)[C@@H](NC(=O)OC(C)(C)C)C(C)(C)C)C(=O)NS(=O)(=O)C1CC1 (some centres unmarked) [Compound 47] | – | > 15 µM | < 0.15 µM | –
13 | C=CC1CC1(NC(=O)[C@@H]1C[C@@H](NS(=O)(=O)c2cccc3ccccc23)CN1C(=O)[C@@H](NC(=O)OC(C)(C)C)C(C)(C)C)C(=O)NS(=O)(=O)C1CC1 (some centres unmarked) [Compound 48] | – | > 15 µM | 0.15 to 15 µM | –
14 | C=CC1CC1(NC(=O)[C@@H]1C[C@@H](NS(=O)(=O)c2cccc3c(N(C)C)cccc23)CN1C(=O)[C@@H](NC(=O)OC(C)(C)C)C(C)(C)C)C(=O)NS(=O)(=O)C1CC1 (some centres unmarked) [Compound 49] | – | > 15 µM | 0.15 to 15 µM | –
15 | C=CC1CC1(NC(=O)[C@@H]1C[C@@H](NC(=O)n2ccc3cccnc32)CN1C(=O)[C@@H](NC(=O)CC1CC1)C(C)(C)C)C(=O)NS(=O)(=O)C1CC1 (some centres unmarked) [Compound 50] | – | 0.15 to 15 µM | < 0.15 µM | –
16 | C=CC1CC1(NC(=O)[C@@H]1C[C@@H](NC(=O)n2ccc3ccccc32)CN1C(=O)[C@@H](NC(=O)CC1CC1)C(C)(C)C)C(=O)NS(=O)(=O)C1CC1 (some centres unmarked) [Compound 51] | < 0.15 µM | – | – | 0.15 to 15 µM
17 | C=CC1CC1(NC(=O)[C@@H]1C[C@@H](NC(=O)OC2=NCc3ccccc32)CN1C(=O)[C@@H](NC(=O)CC1CC1)C(C)(C)C)C(=O)NS(=O)(=O)C1CC1 (some centres unmarked) [Compound 52] | < 0.15 µM | 0.15 to 15 µM | – | –
18 | C=CC1CC1(NC(=O)[C@@H]1C[C@@H](NC(=O)n2c(=O)oc3ccccc32)CN1C(=O)[C@@H](NC(=O)CC1CC1)C(C)(C)C)C(=O)NS(=O)(=O)C1CC1 (some centres unmarked) [Compound 53] | < 0.15 µM | > 15 µM | – | –
19 | C=CC1CC1(NC(=O)[C@@H]1C[C@@H](N2C(=O)c3ccccc3C2=O)CN1C(=O)[C@@H](NC(=O)CC1CC1)C(C)(C)C)C(=O)NS(=O)(=O)C1CC1 (some centres unmarked) [Compound 58] | 0.15 to 15 µM | > 15 µM | – | –
